# In BindingDB's records for doi:10.1021/jm980439q (State University of New York, 1999):
# Biological target: Voltage-dependent L-type calcium channel subunit alpha-1C (Cavia porcellus)
# Test: Displacement of [3H](+)-PN200-110 binding to calcium channels in guinea pig cardiac membranes.
row,Ki [nM],Compound
1,20,"CCOC(=O)C1=C(C)N=C(C)C(C(=O)OCC)C1c1c(C)noc1CCc1ccc2ccccc2c1 (stereo not drawn) [2,6-Dimethyl-4-[3-methyl-5-(2-naphthalen-2-yl-ethyl)-isoxazol-4-yl]-1,4-dihydro-pyridine-3,5-dicarboxylic acid diethyl ester]"
2,91,"CCOC(=O)C1=C(C)N=C(C)C(C(=O)OCC)C1c1c(C)noc1CCc1ccccc1-c1ccccc1 (stereo not drawn) [4-[5-(2-Biphenyl-2-yl-ethyl)-3-methyl-isoxazol-4-yl]-2,6-dimethyl-1,4-dihydro-pyridine-3,5-dicarboxylic acid diethyl ester]"
3,4.1,"CCOC(=O)C1=C(C)N=C(C)C(C(=O)OCC)C1c1c(C)noc1CCc1cccc2ccccc12 (stereo not drawn) [2,6-Dimethyl-4-[3-methyl-5-(2-naphthalen-1-yl-ethyl)-isoxazol-4-yl]-1,4-dihydro-pyridine-3,5-dicarboxylic acid diethyl ester]"
